Experimental data: patent EP0535528A1, “Antibacterial 5-Nitro-1-methyl-imidazolyl-3-terbutyl-2-hydroxy-aryl-carbinols” (EURORESEARCH S.r.L., priority 1991, dated 1993)
≈ marks a conversion by molar mass, not a printed value.

Assays:
[1] = system: Swiss female albino mice; assay: Oral and intraperitoneal acute toxicity in mice (LD50, Probits method); assay type: in vivo; settings: mice; for toxicity when intraperitoneally administered: intraperitoneal, 2000 mg/kg; for toxicity when orally administered: oral, 5000 mg/kg
Protocol: 20 Swiss female albino mice are used for this test of the average weight of 20 g (±2), coming from Nossan breeding .
Cages: in Makrolon® with saw dust litter, Number of animals per cage: 5 Acclimation period: 1 week Temperature: 22°C (± 2°C) Humidity : 60%, Diet: pellets for mice produced by Nossan firm, Water ad libitum Fast before the treatment: 16 hours
Oral by gastric route and intraperitoneal.
The substances to be studied: EU11100, EU11102, EU11103, EU11104 are treated with 0.5% carboxymethylcellulose in spring water, for the oral administration, whereas the same substances are intraperitoneally administered in the form of a physiological solution .
For each of the above mentioned substances, a mother suspension is prepared having a concentration in the active ingredient of 250 mg/ml for the oral administration, and analogously a mother suspension is prepared for the intraperitoneal administration having a concentration of the desired active principle of 100 mg/ml.
The following doses are used • a) oral route: 5000 mg/kg • b) intraperitoneal route : 2000 mg/kg
If mortality is observed at the above mentioned doses, other doses are administered in order to obtain a dose-response curve.
5 animals are used for every utilized concentration.
After the administration of the above substances the animals are kept under observation for 14 days , during which the mortality and the behaviour is observed.
LD₅₀ is determined on the base of the cumulative mortality observed in the successive 14 days after the administration by using the Probits method.

[2] = system: Helicobapter pylori; assay: Inhibition halos of the bacterial growth (impregnated disks on agar); assay type: cell-based; settings: for activity against the Helicobapter pylori strains used: 10 strains; for Inhibition halo (mm), Average: average of 10 strains
Protocol: Comparison substance: Metronidazole Solubilization of the substances : All the substances to be studied are dissolved at room temperature in DMSO.
Some commercially available antibiogram disks are so impregnated with the above mentioned compounds that each disk has concentration equal to 10, 1, 0.1, 0.01 µg.
10 strains of Helicobapter pylori are used of recent clinical isolation.
Columbia Blood Agar Base is used, containing 5% of defibrinated horse blood, 2 % of calf serum, 2 vials of Vitox per liter of medium and Vancomicine (10 µg/ml) Trimetoprim lactate(5 µg/ml) and Polimixin B (2.5 U/ml).
0.1 ml of a suspension of the different used strains are uniformly distributed onto Petri plates, containing 20 ml of Columbia Blood Agar base, obtained by taking a sample, by means of a platinum loop, of different colonies from a 48 hours culture, grown in anaerobiosis jars with "Gas Pack", without a catalyst and diluted into a physiological solution.
4 disks per plate, previously impregnated with the substances under examination, are then placed onto the agar layer of each plate.
After 48 hours of anaerobiosis incubation, as above described, the inhibition halos of the bacterial growth, produced by the different activity of the substances inside the agar, are evaluated.

[3] = system: Helicobapter pylori; assay: Minimal inhibiting concentration (agar dilution); assay type: cell-based; settings: for MIC values: in words, compared with Metronidazole
Protocol: Substances under examination: EU11100, EU11102, EU11103, EU11104. Comparison substance: Metronidazole Solubilization of the substances: All the substances to be studied are dissolved at room temperature in DMSO. […] 10 strains of Helicobapter pylori are used of recent clinical isolation […] The sowing of the bacteria, prepared as described in the preceding test is carried out by means a "multi-point inoculator". After 48 hours incubation under the condition described in the preceding test, the plates are examined and the Minimal Inhibiting Concentration is evaluated, namely that dose corresponding to growth absence.

Question: What does the source list for Cc1cc(C(O)c2ncc([N+](=O)[O-])n2C)c(O)c(C(C)(C)C)c1 (stereo not drawn) [EU11103, 5-nitro-1-methyl-imidazolyl-3-terbutyl-2-hydroxy-5 methyl-phenyl-carbinol]?
Answer: toxicity when intraperitoneally administered [1]: not toxic; toxicity when orally administered [1]: not toxic; activity against the Helicobapter pylori strains used ([2]; 0.1 µg/disk): active against 4 out of 10 strains; activity against the Helicobapter pylori strains used ([2]; 1 µg/disk): active against all the Helicobapter pylori used; activity against the Helicobapter pylori strains used ([2]; disk test): active against all the Helicobapter pylori strains used; Inhibition halo (mm), Average ([2]; 1 µg/disk): 26.7 mm; Inhibition halo (mm), Average ([2]; 10 µg/disk): 36.6 mm; Inhibition halo (mm) at the concentration (µg/disk) ([2]; strain 1, 0.01 µg/disk): 0 mm; Inhibition halo (mm) at the concentration (µg/disk) ([2]; strain 1, 1 µg/disk): 30 mm; Inhibition halo (mm) at the concentration (µg/disk) ([2]; strain 1, 10 µg/disk): 40 mm; Inhibition halo (mm) at the concentration (µg/disk) ([2]; strain 2, 0.01 µg/disk): 0 mm; Inhibition halo (mm) at the concentration (µg/disk) ([2]; strain 2, 0.1 µg/disk): 0 mm; Inhibition halo (mm) at the concentration (µg/disk) ([2]; strain 3, 0.01 µg/disk): 0 mm; Inhibition halo (mm) at the concentration (µg/disk) ([2]; strain 3, 0.1 µg/disk): 0 mm; Inhibition halo (mm) at the concentration (µg/disk) ([2]; strain 3, 1 µg/disk): 24 mm; Inhibition halo (mm) at the concentration (µg/disk) ([2]; strain 3, 10 µg/disk): 35 mm; Inhibition halo (mm) at the concentration (µg/disk) ([2]; strain 4, 0.01 µg/disk): 0 mm; Inhibition halo (mm) at the concentration (µg/disk) ([2]; strain 4, 0.1 µg/disk): 20 mm; Inhibition halo (mm) at the concentration (µg/disk) ([2]; strain 4, 10 µg/disk): 44 mm; Inhibition halo (mm) at the concentration (µg/disk) ([2]; strain 5, 0.01 µg/disk): 0 mm; Inhibition halo (mm) at the concentration (µg/disk) ([2]; strain 5, 0.1 µg/disk): 0 mm; Inhibition halo (mm) at the concentration (µg/disk) ([2]; strain 5, 1 µg/disk): 17 mm; Inhibition halo (mm) at the concentration (µg/disk) ([2]; strain 5, 10 µg/disk): 22 mm; Inhibition halo (mm) at the concentration (µg/disk) ([2]; strain 6, 0.01 µg/disk): 0 mm; Inhibition halo (mm) at the concentration (µg/disk) ([2]; strain 6, 1 µg/disk): 32 mm; Inhibition halo (mm) at the concentration (µg/disk) ([2]; strain 6, 10 µg/disk): 43 mm; Inhibition halo (mm) at the concentration (µg/disk) ([2]; strain 7, 0.01 µg/disk): 0 mm; Inhibition halo (mm) at the concentration (µg/disk) ([2]; strain 7, 0.1 µg/disk): 0 mm; Inhibition halo (mm) at the concentration (µg/disk) ([2]; strain 7, 1 µg/disk): 20 mm; Inhibition halo (mm) at the concentration (µg/disk) ([2]; strain 7, 10 µg/disk): 28 mm; Inhibition halo (mm) at the concentration (µg/disk) ([2]; strain 8, 0.01 µg/disk): 0 mm; Inhibition halo (mm) at the concentration (µg/disk) ([2]; strain 8, 0.1 µg/disk): 21 mm; Inhibition halo (mm) at the concentration (µg/disk) ([2]; strain 8, 1 µg/disk): 37 mm; Inhibition halo (mm) at the concentration (µg/disk) ([2]; strain 8, 10 µg/disk): 45 mm; Inhibition halo (mm) at the concentration (µg/disk) ([2]; strain 9, 0.01 µg/disk): 0 mm; Inhibition halo (mm) at the concentration (µg/disk) ([2]; strain 9, 0.1 µg/disk): 0 mm; Inhibition halo (mm) at the concentration (µg/disk) ([2]; strain 9, 1 µg/disk): 22 mm; Inhibition halo (mm) at the concentration (µg/disk) ([2]; strain 9, 10 µg/disk): 33 mm; Inhibition halo (mm) at the concentration (µg/disk) ([2]; strain 10, 0.01 µg/disk): 0 mm; Inhibition halo (mm) at the concentration (µg/disk) ([2]; strain 10, 0.1 µg/disk): 0 mm; Inhibition halo (mm) at the concentration (µg/disk) ([2]; strain 10, 1 µg/disk): 24 mm; MIC50 ([3]; 10 strains): 0.03 µg/mL (≈ 0.0939 µM); MIC90 ([3]; 10 strains): 0.06 µg/mL (≈ 0.188 µM); MIC range ([3]; 10 strains): 0.015 to 0.016 µg/mL; MIC values [3]: very low MIC values; MIC ([3]; strain 1): 0.06 µg/mL (≈ 0.188 µM); MIC ([3]; strain 2): 0.06 µg/mL (≈ 0.188 µM); MIC ([3]; strain 3): 0.03 µg/mL (≈ 0.0939 µM); MIC ([3]; strain 4): 0.03 µg/mL (≈ 0.0939 µM); MIC ([3]; strain 5): 0.03 µg/mL (≈ 0.0939 µM); MIC ([3]; strain 6): 0.03 µg/mL (≈ 0.0939 µM); MIC ([3]; strain 7): 0.06 µg/mL (≈ 0.188 µM); MIC ([3]; strain 8): 0.06 µg/mL (≈ 0.188 µM); MIC ([3]; strain 9): 0.03 µg/mL (≈ 0.0939 µM); MIC ([3]; strain 10): 0.015 µg/mL (≈ 0.047 µM)

Question: What does the source list for Cc1ccc(C(C)(C)C)c(O)c1C(O)c1ncc([N+](=O)[O-])n1C (stereo not drawn) [EU11104, 5-nitro-1-methyl-imidazolyl-3-terbutyl-2-hydroxy-6 methyl-phenyl-carbinol]?
Answer: toxicity when intraperitoneally administered [1]: not toxic; toxicity when orally administered [1]: not toxic; activity against the Helicobapter pylori strains used ([2]; 0.1 µg/disk): active against 4 out of 10 strains; activity against the Helicobapter pylori strains used ([2]; 1 µg/disk): active against all the Helicobapter pylori used; activity against the Helicobapter pylori strains used ([2]; disk test): active against all the Helicobapter pylori strains used; Inhibition halo (mm), Average ([2]; 1 µg/disk): 24.9 mm; Inhibition halo (mm), Average ([2]; 10 µg/disk): 31.5 mm; Inhibition halo (mm) at the concentration (µg/disk) ([2]; strain 1, 0.01 µg/disk): 0 mm; Inhibition halo (mm) at the concentration (µg/disk) ([2]; strain 1, 1 µg/disk): 27 mm; Inhibition halo (mm) at the concentration (µg/disk) ([2]; strain 1, 10 µg/disk): 33 mm; Inhibition halo (mm) at the concentration (µg/disk) ([2]; strain 2, 0.01 µg/disk): 0 mm; Inhibition halo (mm) at the concentration (µg/disk) ([2]; strain 2, 0.1 µg/disk): 0 mm; Inhibition halo (mm) at the concentration (µg/disk) ([2]; strain 2, 1 µg/disk): 22 mm; Inhibition halo (mm) at the concentration (µg/disk) ([2]; strain 2, 10 µg/disk): 30 mm; Inhibition halo (mm) at the concentration (µg/disk) ([2]; strain 3, 0.01 µg/disk): 0 mm; Inhibition halo (mm) at the concentration (µg/disk) ([2]; strain 3, 0.1 µg/disk): 0 mm; Inhibition halo (mm) at the concentration (µg/disk) ([2]; strain 3, 1 µg/disk): 22 mm; Inhibition halo (mm) at the concentration (µg/disk) ([2]; strain 3, 10 µg/disk): 28 mm; Inhibition halo (mm) at the concentration (µg/disk) ([2]; strain 4, 0.01 µg/disk): 0 mm; Inhibition halo (mm) at the concentration (µg/disk) ([2]; strain 4, 1 µg/disk): 30 mm; Inhibition halo (mm) at the concentration (µg/disk) ([2]; strain 4, 10 µg/disk): 36 mm; Inhibition halo (mm) at the concentration (µg/disk) ([2]; strain 5, 0.01 µg/disk): 0 mm; Inhibition halo (mm) at the concentration (µg/disk) ([2]; strain 5, 0.1 µg/disk): 0 mm; Inhibition halo (mm) at the concentration (µg/disk) ([2]; strain 5, 1 µg/disk): 22 mm; Inhibition halo (mm) at the concentration (µg/disk) ([2]; strain 5, 10 µg/disk): 28 mm; Inhibition halo (mm) at the concentration (µg/disk) ([2]; strain 6, 0.01 µg/disk): 0 mm; Inhibition halo (mm) at the concentration (µg/disk) ([2]; strain 6, 0.1 µg/disk): 14 mm; Inhibition halo (mm) at the concentration (µg/disk) ([2]; strain 6, 1 µg/disk): 29 mm; Inhibition halo (mm) at the concentration (µg/disk) ([2]; strain 6, 10 µg/disk): 35 mm; Inhibition halo (mm) at the concentration (µg/disk) ([2]; strain 7, 0.01 µg/disk): 0 mm; Inhibition halo (mm) at the concentration (µg/disk) ([2]; strain 7, 0.1 µg/disk): 0 mm; Inhibition halo (mm) at the concentration (µg/disk) ([2]; strain 7, 1 µg/disk): 22 mm; Inhibition halo (mm) at the concentration (µg/disk) ([2]; strain 7, 10 µg/disk): 26 mm; Inhibition halo (mm) at the concentration (µg/disk) ([2]; strain 8, 0.01 µg/disk): 0 mm; Inhibition halo (mm) at the concentration (µg/disk) ([2]; strain 8, 0.1 µg/disk): 17 mm; Inhibition halo (mm) at the concentration (µg/disk) ([2]; strain 8, 1 µg/disk): 31 mm; Inhibition halo (mm) at the concentration (µg/disk) ([2]; strain 8, 10 µg/disk): 37 mm; Inhibition halo (mm) at the concentration (µg/disk) ([2]; strain 9, 0.01 µg/disk): 0 mm; Inhibition halo (mm) at the concentration (µg/disk) ([2]; strain 9, 0.1 µg/disk): 0 mm; Inhibition halo (mm) at the concentration (µg/disk) ([2]; strain 9, 1 µg/disk): 21 mm; Inhibition halo (mm) at the concentration (µg/disk) ([2]; strain 9, 10 µg/disk): 30 mm; Inhibition halo (mm) at the concentration (µg/disk) ([2]; strain 10, 0.01 µg/disk): 0 mm; Inhibition halo (mm) at the concentration (µg/disk) ([2]; strain 10, 0.1 µg/disk): 0 mm; Inhibition halo (mm) at the concentration (µg/disk) ([2]; strain 10, 1 µg/disk): 23 mm; Inhibition halo (mm) at the concentration (µg/disk) ([2]; strain 10, 10 µg/disk): 32 mm; MIC 50% ([3]; 10 strains): 0.03 µg/mL (≈ 0.0939 µM); MIC 90% ([3]; 10 strains): 0.06 µg/mL (≈ 0.188 µM); MIC range ([3]; 10 strains): 0.015 to 0.016 µg/mL; MIC values [3]: very low MIC values; M.I.C. ([3]; strain 1): 0.12 µg/mL; M.I.C. ([3]; strain 2): 0.03 µg/mL; M.I.C. ([3]; strain 3): 0.06 µg/mL; M.I.C. ([3]; strain 4): 0.015 µg/mL; M.I.C. ([3]; strain 5): 0.03 µg/mL; M.I.C. ([3]; strain 6): 0.03 µg/mL; M.I.C. ([3]; strain 7): 0.06 µg/mL; M.I.C. ([3]; strain 8): 0.06 µg/mL; M.I.C. ([3]; strain 9): 0.06 µg/mL; M.I.C. ([3]; strain 10): 0.015 µg/mL
